{
  "source": "BindingDB's records for patent US20260022118",
  "about": "(University of Texas System, 2026)",
  "target": "GTPase NRas [G12D,C118S] (Homo sapiens, UniProt P01111, C118S/G12D)",
  "sequence (P01111 whole entry G12D/C118S, looked up)": "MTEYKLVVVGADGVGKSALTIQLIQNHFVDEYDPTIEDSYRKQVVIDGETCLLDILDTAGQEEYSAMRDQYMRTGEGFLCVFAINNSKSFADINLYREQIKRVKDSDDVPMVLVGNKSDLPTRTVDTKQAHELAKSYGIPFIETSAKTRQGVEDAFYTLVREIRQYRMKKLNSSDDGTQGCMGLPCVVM",
  "test": "NRas G12D Surface Plasmon Resonance (SPR) Binding Assay",
  "procedure": "The assay was run at 25° C. with a data collection rate of 10 Hz. All samples were flowed over both a reference surface and an active surface. Samples were injected for 30 s, with a dissociation time length of 120 s, at a flow rate of 100 μL/min and followed by an extra wash with 50% DMSO and a carry-over control injected at 40 μL/min for 30 s. Ten startup cycles were performed at the beginning of the assay. Solvent correction samples were injected once in the middle of the assay, and once at the end. A control sample of 10 μM control compound was injected between two negative control injections (1.0× running buffer containing 3% DMSO) every thirty cycles, to periodically assess NRAS surface stability. Assay was allowed to run for approximately 20-24 hours due to loss of activity of the protein surface over time. Data was analyzed using the Biacore™ S200 Evaluation Software, and all data was fit using a 1:1 kinetic binding model or steady-state fitting, as appropriate.",
  "data": [
    {"smiles": "C#Cc1c(F)ccc2cc(O)cc(-c3nc(C(C)=O)c4c([C@H]5[C@@H]6CNC[C@@H]65)nn(C5CC5)c4c3F)c12", "note": "[US20260022118, Example 84]", "values": [
      {"measurement": "Kd", "result": 0.119, "unit": "µM"}
    ]}
  ]
}
